Measurements as given in patent US20030199431A1, “Modified peptide nucleic acid (PNA) molecules” (priority 1999, published 2003).

Legend:
[1] = tested on: E. coli K12; assay: Bacterial growth inhibition with PNA 249 (without peptide, FtsZ) and peptide 250, 100% Mueller-Hinton broth (Table 18); assay type: cell-based, Escherichia coli; conditions: for Growth inhibition effect: low concentration end
[2] = tested on: test culture; assay type: cell-based; conditions: 37° C., 16 hours

| Substance | Peptide concentration at which the peptide alone may show growth inhibition effect [1] | Growth inhibition effect [1] | Growth inhibition [2] |
| --- | --- | --- | --- |
| H-CG-KLAKALKKLL-NH2 (H-CGKLAKALKKLL-NH2) [PNA 250, peptide alone, also used for PNA 174] | above 2500 nM | neither 249 nor 250 alone nor 249 and 250 together show any useful effect | – |
| H-KFFKFFKFFK-ado-TGA CTA GAT GAG-NH2 [PNA 136] | – | – | No growth inhibition was detected |
| H-ado-TTC AAA CAT AGT-NH2 [PNA 249] | – | neither 249 nor 250 alone nor 249 and 250 together show any useful effect | – |
